Experimental data from US5902817A, “Certain sulfoxide and sulfone derivatives” (priority 1997, dated 1999).
Where two headings read alike, the source gives them in different places. Where a SMILES comes first, the peptide text is derived from it.

Columns and labels:
LNCAP cells = conditions: 7 days, mean +/- SEM
Procedure: On the 7th day, the cells are pulsed with 3H-thymidine for 4 hours, harvested and measured for radioactivity. Values represent means +/- SEM of 6 separate cell wells for each treatment. All experiments are performed at least twice.
LNCAP cells are obtained from Dr. William Nelson at the Johns Hopkins School of Medicine in Baltimore, Md. […] Cells are grown in RPMI-1640 media supplemented with 5% heat-inactivated fetal calf serum, 2 mM-glutamine, 100 units/ml penicillin, and 100 μg/ml streptomycin (Paragon) in a humidified incubator at 37° C. in a 5% CO2 /95% air atmosphere.
The cells are suspended at 1×10^3 cells/ml in RPMI-1640 media and seeded into 24-well plates at 500 μl per well. […] On days 3, 5 and 7, media and drug are refreshed. On the 8th day following seeding, each well is pulsed with 1 μCi ^3 H-thymidine (New England Nuclear) for 4 hours. Media is then removed and the wells washed 2 times with phosphate buffered saline (pH=7.4). […] 5 ml UltimaGold (Packard) scintillation cocktail is added and radioactivity is quantitated using a Beckman LS6001 scintillation counter.

[1] = system: injury to the cortex in rats following middle cerebral artery occlusion; conditions: n = 10
Description: A colony of SHRSP rats is bred at Johns Hopkins School of Medicine from three pairs of male and female rats obtained from the National Institutes of Health (Laboratory, Sciences Section, Veterinary Resources Program, National Center for Research Resources, Bethesda, Md.). All rats are kept in a virus-free environment and maintained on regular diet (NIH 31, Zeigler Bros, Inc.) with water ad libitum. All groups of rats are allowed to eat and drink water until the morning of the experiment. […]
Arterial pH and PaCO2, and partial pressure of oxygen (PaO2) are measured with a self-calibrating Radiometer electrode system (ABL 3; Copenhagen, Denmark). Hemoglobin and arterial oxygen content are measured with a hemoximeter (Radiometer, Model OSM3; Copenhagen, Denmark). Blood glucose is measured with a glucose analyzer (model 2300A, Yellow Springs Instruments, Yellow Springs, Ohio).
Each group is exposed to 2 hours of right MCA occlusion and 22 hours of reperfusion. All variables but the rectal temperature are measured at baseline, at 15 minutes and 45 minutes of right MCA occlusion. The rectal temperature is measured at baseline, at 0 and 15 min of MCA occlusion, and at 0 and 22 hours of reperfusion.

[2] = In Vivo Toxicity of NAALADase Inhibitors (survival of mice); conditions: mouse, injected, read-out: Survival Rate After 5 days
Description: The mice were subsequently observed two times per day for 5 consecutive days.

NAALADase [3] = molecular target: T1, NAALADase (Rattus norvegicus, UniProt P70627); assay: In Vitro Assay of NAALADase Activity ([3H]Glu liberated from [3H]NAAG, synaptosomal protein); type: biochemical; design: of synaptosomal protein; from tissue; host or cells: synaptosomal protein (brain tissue; rat by inference)
Procedure: Substrate and product were resolved by anion-exchange liquid chromatography. […] Quisqualate (100 μM) was included in parallel assay tubes to confirm the specificity of the measurements.

cortical cell cultures = assay: In Vitro Toxicity of NAAG following Treatment with NAALADase Inhibitors (LDH release); type: cell-based, rat (Harlan Sprague Dawley); conditions: inhibitor 1 μM; NAAG 3 μM, n = 1
Procedure: Experiments are performed after 21 days in cultures.
At the end of exposure, the cells are washed once with HEPES buffered saline solution and then replaced with serum free modified Earle's basal medium. The cultures are then returned to the CO2 incubator for 24 hour recovery.
This control measurement is subtracted from each experimental point.

NAALADase [4] = molecular target: T1, NAALADase; conditions: substrate NAAG; cited from earlier work

T1 sequence (P70627 whole entry): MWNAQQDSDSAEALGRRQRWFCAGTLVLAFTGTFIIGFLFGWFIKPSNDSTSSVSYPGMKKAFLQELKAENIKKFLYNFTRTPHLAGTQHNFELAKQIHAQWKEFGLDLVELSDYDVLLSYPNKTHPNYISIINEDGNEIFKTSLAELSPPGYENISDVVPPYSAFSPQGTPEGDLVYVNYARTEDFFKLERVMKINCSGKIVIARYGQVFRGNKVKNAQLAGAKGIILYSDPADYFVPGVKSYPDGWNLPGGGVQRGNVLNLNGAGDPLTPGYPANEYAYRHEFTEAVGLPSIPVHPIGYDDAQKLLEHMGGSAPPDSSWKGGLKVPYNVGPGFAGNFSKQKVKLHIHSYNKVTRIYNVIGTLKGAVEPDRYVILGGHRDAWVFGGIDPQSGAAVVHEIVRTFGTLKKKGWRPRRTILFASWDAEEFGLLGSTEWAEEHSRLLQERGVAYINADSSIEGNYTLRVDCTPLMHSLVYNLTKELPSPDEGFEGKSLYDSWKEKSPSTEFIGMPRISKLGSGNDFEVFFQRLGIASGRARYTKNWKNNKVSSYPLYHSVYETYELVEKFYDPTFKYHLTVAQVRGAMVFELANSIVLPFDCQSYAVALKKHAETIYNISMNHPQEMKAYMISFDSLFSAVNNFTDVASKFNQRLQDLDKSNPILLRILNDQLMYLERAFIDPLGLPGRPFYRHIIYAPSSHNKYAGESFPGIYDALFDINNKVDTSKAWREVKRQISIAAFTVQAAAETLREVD

## O=C(O)CCC(CP(=O)(O)O)C(=O)O (centres unmarked) [2-(phosphonomethyl)pentanedioic acid]
LNCAP cells; dose 10 pM
  3H-Thymidine Incorporation: 3078 ± 1006 dpm/well
LNCAP cells; dose 100 pM
  3H-Thymidine Incorporation: 2062 ± 595 dpm/well
LNCAP cells; dose 1 nM
  3H-Thymidine Incorporation: 1001 ± 52 dpm/well
LNCAP cells; dose 10 nM
  3H-Thymidine Incorporation: 664 ± 366 dpm/well
[1]; 10 mg/kg followed by 2 mg/kg/hr for 1 hour
  Cortical Injury Volume ± S.E.M.: 135.00 ± 32.18 mm^3
[1]; 100 mg/kg followed by 20 mg/kg/hr for one hour
  Cortical Injury Volume ± S.E.M.: 65.23 ± 32.18 mm^3
[2]; 1 mg/kg
  survival at 120 h: 100%
[2]; 5 mg/kg
  survival at 120 h: 100%
[2]; 10 mg/kg
  survival at 120 h: 100%
[2]; 30 mg/kg
  survival at 120 h: 100%
[2]; 100 mg/kg
  survival at 120 h: 100%
[2]; 300 mg/kg
  survival at 120 h: 100%
[2]; 500 mg/kg
  survival at 120 h: 66.7%
NAALADase [3]
  NAALADase inhibiting activity (in words): high NAALADase inhibiting activity
Cortical cell cultures
  % Toxicity: -4.71%

## O=C(O)CCC(CP(=O)(O)CCC(=O)O)C(=O)O (centres unmarked) [2-[[2-carboxyethyl)hydroxyphosphinol]methyl]pentanedioic acid]
NAALADase [3]
  NAALADase inhibiting activity (in words): lower NAALADase inhibiting activity than 2-(phosphonomethyl)pentanedioic acid

## CC(=O)N[C@@H](CC(=O)O)C(=O)N[C@@H](CCC(=O)O)C(=O)O [NAAG, N-acetyl-aspartyl-glutamate] (Ac-Asp-Glu-OH)
NAALADase [4]
  Km: 0.54 µM
